Source: US9150567B2, “Substituted tetrazol-1-yl-phenoxymethyl-thiazol-2-yl-piperidinyl-pyrimidine salts” (CYMABAY THERAPEUTICS, INC., priority 2009, dated 2015)
“And” between values parts separate entries of the source, which are not always exact repeats. Equal entries are not always repeated. Structures can show the parent of a compound that is named as a salt. Where two headings read alike, the source gives them in different places.

Experiments:
[1] = Overnight / elevated RH stress of the crystalline salts; format: physicochemical; conditions: overnight / elevated relative humidity stress
[2] = Systemic exposure and pharmacokinetics after single oral gavage dose of 200 mg/kg in fasted male SD rats; format: in vivo, Sprague Dawley (SD) rats; conditions: for Fold difference in plasma concentration compared to micronized free-base form: 30 hours post-dose; for Fold difference in plasma concentration compared to micronized free-base form / Increase of systemic drug exposure in AUC0-t compared with micro MBX-2982 (free base): male SD rats; for Increase of systemic drug exposure in AUC0-t compared with micro MBX-2982 (free base): equivalent amounts
Protocol: Two studies were conducted in order to compare the systemic exposure and pharmacokinetics (PK) of microcrystalline MBX-2982 and salt forms of MBX-2982 in fasted male Sprague Dawley (SD) rats following single oral gavage (PO) doses of 200 mg/kg. Four salt foms of MBX-2982 were investigate in the studies. The tested salts were HCl Form I, HCl salt Form II, mesylate salt and the tosylate salt.
Preparation of samples was performed by solvent precipitation of plasma proteins in a 1 mL/well 96-well plate. Standards were prepared by spiking 10 μL of blank plasma with 10 μL of standard solution (acetonitrile containing MBX-2982 at 0.01, 0.02, 0.05, 0.1, 0.2, 0.5, 1, 2, 5, 10, 20, 50 and 100 μg/mL) and 300 μL of 0.1% formic acid in acetonitrile containing 0.2 μg/mL internal standard. Plasma samples were prepared by adding 10 μL of plasma sample, 10 μL of acetonitrile, and 300 μL of 0.2 μg/mL internal standard in 0.1% formic acid in acetonitrile. After addition of the organic solvents, all samples were vortexed briefly and centrifuged at 3600 rpm for 10 minutes. Some of the samples were diluted 1.3 to 2-fold with blank plasma. An aliquot of the supernatant (25 μL) was transfer to a 1 mL/well 96-well plate and mixed with 200 μL water/ACN (50/50, v/v) and injected into the HPLC.
The suspensions for microcrystalline MBX-2982 (free base) and salt forms of MBX-2982 were prepared in 1% carboxymethylcellulose and 2% tween 80 in water (w/w/v).
Five groups of animals were given microcrystalline and salt forms suspension doses of MBX-2982 orally at 200 mg/kg, respectively. Food was withheld the night before dose and returned nine hours after dosing. Blood samples were collected at 0.25, 0.5, 1, 2, 4, 6, 9, 24, 30 and 48 h post dose. MBX-2982 plasma concentration from these samples was analyzed by a non-validated high performance liquid chromatography in conjunction with mass spectrometry (LC-MS/MS) method.
Plasma concentration-time data for individual animals were analyzed using WinNonlin software (Professional, version 5.0.1; Pharsight Corp.). A non-compartmental model (model 200) was used. Peak area ratios of MBX-2982 to internal standard and concentration were fitted to a quadratic equation (Calibration Curve) with 1/x weighting using a quadratic regression program in Analyst version 1.4.2 (Applied Biosystem Inc). The equations were then used to interpolate the concentrations of MBX-2982 in samples from peak area to internal standard ratio.
The following pharmacokinetic parameters were calculated: • 1) Cmax: Maximum (peak) plasma concentration • 2) Tmax: Time at which Cmax occurred • 3) t1/2: Terminal phase half-life • 4) AUC0-t: Area under the concentration-time curve from time 0 to last measurable concentration • 5) AUC0-inf: Area under the concentration-time curve from time 0 extrapolated to infinity

[3] = PO 200 mg/kg, listed as HCl form II, hydrochloride
[4] = fasted male SD rats, single PO dose 200 mg/kg, mean ± SD, hydrochloride
[5] = 0.5 h post dose, fasted male SD rats, PO 200 mg/kg, mean ± SD
[6] = 1 h post dose, fasted male SD rats, PO 200 mg/kg, mean ± SD
[7] = 2 h post dose, fasted male SD rats, PO 200 mg/kg, mean ± SD
[8] = 24 h post dose, fasted male SD rats, PO 200 mg/kg, mean ± SD
[9] = 30 h post dose, fasted male SD rats, PO 200 mg/kg, mean ± SD
[10] = 48 h post dose, fasted male SD rats, PO 200 mg/kg, mean ± SD
[11] = fasted male SD rats, single PO dose 200 mg/kg, mean ± SD

CCc1cnc(N2CCC(c3nc(COc4ccc(-n5cnnn5)cc4)cs3)CC2)nc1 [HBr salt, 5-ethyl-2-{4-[4-(4-tetrazol-1-yl-phenoxymethyl)-thiazol-2-yl]-piperidin-1-yl}-pyrimidine]
Appearance of the material after RH stress [1]: remained a free flowing powder

CCc1cnc(N2CCC(c3nc(COc4ccc(-n5cnnn5)cc4)cs3)CC2)nc1.Cl [HCl Salt Form II, 5-ethyl-2-{4-[4-(4-tetrazol-1-yl-phenoxymethyl)-thiazol-2-yl]-piperidin-1-yl}-pyrimidine hydrochloride]
Mean plasma concentration of MBX-2982 ([2]; 0.5 h post dose, fasted male SD rats, PO 200 mg/kg, mean ± SD, hydrochloride): 8060 ± 1610 ng/mL | Mean plasma concentration of MBX-2982 ([2]; 1 h post dose, fasted male SD rats, PO 200 mg/kg, mean ± SD, hydrochloride): 16300 ± 2770 ng/mL | Mean plasma concentration of MBX-2982 ([2]; 2 h post dose, fasted male SD rats, PO 200 mg/kg, mean ± SD, hydrochloride): 23700 ± 4220 ng/mL | Mean plasma concentration of MBX-2982 ([2]; 4 h post dose, fasted male SD rats, PO 200 mg/kg, mean ± SD, hydrochloride): 29200 ± 3710 ng/mL | Mean plasma concentration of MBX-2982 ([2]; 6 h post dose, fasted male SD rats, PO 200 mg/kg, mean ± SD, hydrochloride): 29100 ± 8130 ng/mL | Mean plasma concentration of MBX-2982 ([2]; 9 h post dose, fasted male SD rats, PO 200 mg/kg, mean ± SD, hydrochloride): 23200 ± 5700 ng/mL | Mean plasma concentration of MBX-2982 ([2]; 24 h post dose, fasted male SD rats, PO 200 mg/kg, mean ± SD, hydrochloride): 12020 ± 9330 ng/mL | Mean plasma concentration of MBX-2982 ([2]; 24 h post dose, fasted male SD rats, PO 200 mg/kg, mean ± SD, listed as HCl form II, hydrochloride): 12020 ng/mL | Fold difference in plasma concentration compared to micronized free-base form [2, 3]: 186 fold | Mean plasma concentration of MBX-2982 ([2]; 30 h post dose, fasted male SD rats, PO 200 mg/kg, mean ± SD, hydrochloride): 14900 ± 13200 ng/mL | Mean plasma concentration of MBX-2982 ([2]; 30 h post dose, fasted male SD rats, PO 200 mg/kg, mean ± SD, listed as HCl form II, hydrochloride): 14900 ng/mL | Mean plasma concentration of MBX-2982 ([2]; 48 h post dose, fasted male SD rats, PO 200 mg/kg, mean ± SD, hydrochloride): 32.5 ng/mL | AUC0-24 [2, 4]: 482 ± 69.4 µg·h/mL | AUC0-inf [2, 4]: 469 µg·h/mL | AUC(0-t) [2, 4]: 679 ± 208 µg·h/mL | Cmax [2, 4]: 31800 ± 5050 ng/mL | Tmax [2, 4]: 11.5 ± 12.4 h | t1/2 [2, 4]: 2.09 h | Increase of systemic drug exposure in AUC0-t compared with micro MBX-2982 (free base) [2, 3]: 2.9 fold

CCc1cnc(N2CCC(c3nc(COc4ccc(-n5cnnn5)cc4)cs3)CC2)nc1 [MBX-2982, 5-ethyl-2-{4-[4-(4-tetrazol-1-yl-phenoxymethyl)-thiazol-2-yl]-piperidin-1-yl}-pyrimidine]
Mean plasma concentration of MBX-2982 [2, 5]: 3890 ± 950 ng/mL | Mean plasma concentration of MBX-2982 [2, 6]: 6700 ± 1270 ng/mL | Mean plasma concentration of MBX-2982 [2, 7]: 11600 ± 1610 ng/mL | Mean plasma concentration of MBX-2982 [2, 8]: 260 ng/mL and 260 ± 280 ng/mL | Mean plasma concentration of MBX-2982 [2, 9]: 80 ng/mL and 80 ± 60 ng/mL | Mean plasma concentration of MBX-2982 [2, 10]: 160 ± 300 ng/mL | concentration at 4 h ([2]; male, Sprague-Dawley, rat, plasma, po, 4 h post dose, fasted male SD rats, PO 200 mg/kg, mean ± SD, read-out: Mean plasma concentration of MBX-2982): 15800 ± 3740 ng/mL | concentration at 6 h ([2]; male, Sprague-Dawley, rat, plasma, po, 6 h post dose, fasted male SD rats, PO 200 mg/kg, mean ± SD, read-out: Mean plasma concentration of MBX-2982): 15900 ± 4940 ng/mL | concentration at 9 h ([2]; male, Sprague-Dawley, rat, plasma, po, 9 h post dose, fasted male SD rats, PO 200 mg/kg, mean ± SD, read-out: Mean plasma concentration of MBX-2982): 15000 ± 5900 ng/mL | half-life ([2]; male, Sprague-Dawley, rat, plasma, po, fasted male SD rats, single PO dose 200 mg/kg, mean ± SD): 3.53 ± 0.7 h | AUC(0-t) ([2]; male, Sprague-Dawley, rat, plasma, po, fasted male SD rats, single PO dose 200 mg/kg, mean ± SD, read-out: AUC0-24): 233 ± 64.8 µg·h/mL | AUC(0-t) ([2]; male, Sprague-Dawley, rat, plasma, po, fasted male SD rats, single PO dose 200 mg/kg, mean ± SD, read-out: AUC0-t): 236 ± 64.6 µg·h/mL | Cmax ([2]; male, Sprague-Dawley, rat, plasma, po, fasted male SD rats, single PO dose 200 mg/kg, mean ± SD, read-out: Cmax): 17400 ± 4190 ng/mL | Tmax ([2]; male, Sprague-Dawley, rat, plasma, po, fasted male SD rats, single PO dose 200 mg/kg, mean ± SD, read-out: Tmax): 5.88 ± 1.55 h

CCc1cnc(N2CCC(c3nc(COc4ccc(-n5cnnn5)cc4)cs3)CC2)nc1 [Mesylate Salt, 5-ethyl-2-{4-[4-(4-tetrazol-1-yl-phenoxymethyl)-thiazol-2-yl]-piperidin-1-yl}-pyrimidine]
Mean plasma concentration of MBX-2982 [2, 5]: 8520 ± 975 ng/mL | Mean plasma concentration of MBX-2982 [2, 6]: 12200 ± 839 ng/mL | Mean plasma concentration of MBX-2982 [2, 7]: 18800 ± 904 ng/mL | Mean plasma concentration of MBX-2982 ([2]; 4 h post dose, fasted male SD rats, PO 200 mg/kg, mean ± SD): 26700 ± 4390 ng/mL | Mean plasma concentration of MBX-2982 ([2]; 6 h post dose, fasted male SD rats, PO 200 mg/kg, mean ± SD): 21800 ± 6480 ng/mL | Mean plasma concentration of MBX-2982 ([2]; 9 h post dose, fasted male SD rats, PO 200 mg/kg, mean ± SD): 18000 ± 5180 ng/mL | Mean plasma concentration of MBX-2982 [2, 8]: 476 ± 344 ng/mL | Mean plasma concentration of MBX-2982 ([2]; 24 h post dose, fasted male SD rats, PO 200 mg/kg, mean ± SD, listed as mesylate): 476 ng/mL | Fold difference in plasma concentration compared to micronized free-base form ([2]; PO 200 mg/kg): 7 fold | Mean plasma concentration of MBX-2982 [2, 9]: 574 ± 641 ng/mL | Mean plasma concentration of MBX-2982 ([2]; 30 h post dose, fasted male SD rats, PO 200 mg/kg, mean ± SD, listed as mesylate): 574 ng/mL | Mean plasma concentration of MBX-2982 [2, 10]: 82 ± 82 ng/mL | AUC0-24 [2, 11]: 314 ± 65.7 µg·h/mL | AUC0-inf [2, 11]: 323 ± 62.0 µg·h/mL | AUC(0-t) [2, 11]: 322 ± 63.6 µg·h/mL | Cmax [2, 11]: 26700 ± 4460 ng/mL | Tmax [2, 11]: 4.50 ± 1.00 h | t1/2 [2, 11]: 4.11 ± 1.29 h | Increase of systemic drug exposure in AUC0-t compared with micro MBX-2982 (free base) ([2]; PO 200 mg/kg): 1.4 fold | Appearance of the material after RH stress [1]: remained a free flowing powder

CCc1cnc(N2CCC(c3nc(COc4ccc(-n5cnnn5)cc4)cs3)CC2)nc1 [besylate salt, 5-ethyl-2-{4-[4-(4-tetrazol-1-yl-phenoxymethyl)-thiazol-2-yl]-piperidin-1-yl}-pyrimidine]
Appearance of the material after RH stress [1]: remained a free-flowing powder

CCc1cnc(N2CCC(c3nc(COc4ccc(-n5cnnn5)cc4)cs3)CC2)nc1 [camsylate salt, 5-ethyl-2-{4-[4-(4-tetrazol-1-yl-phenoxymethyl)-thiazol-2-yl]-piperidin-1-yl}-pyrimidine]
Appearance of the material after RH stress [1]: remained a free flowing powder

CCc1cnc(N2CCC(c3nc(COc4ccc(-n5cnnn5)cc4)cs3)CC2)nc1 [esylate salt, 5-ethyl-2-{4-[4-(4-tetrazol-1-yl-phenoxymethyl)-thiazol-2-yl]-piperidin-1-yl}-pyrimidine]
Appearance of the material after RH stress [1]: remained a free flowing powder

CCc1cnc(N2CCC(c3nc(COc4ccc(-n5cnnn5)cc4)cs3)CC2)nc1 [sulfate salt, 5-ethyl-2-{4-[4-(4-tetrazol-1-yl-phenoxymethyl)-thiazol-2-yl]-piperidin-1-yl}-pyrimidine]
Appearance of the material after RH stress [1]: turned tacky
